# Data taken from article PMC7044277 (Nature Communications, 2020).
# Several values for one entry are separate records, joined by “and”; a condition that tells them apart may be missing. Equal entries are not always repeated.
# What was measured:
# [1] = test system: serotonin receptor (subtype not given; reference agonist serotonin); assay: β-arrestin2 recruitment (Tango), agonist activity, source data Fig_S10l; assay type: cell-based, human; details: drug alone
# [2] = target: T1, 5HT1A (Homo sapiens, UniProt P08908); assay: β-arrestin2 recruitment (Tango); assay type: cell-based; details: Fig_S10f, single replicates
# T1 construct: expressed in transfected cells; host or cells: HTLA cells expressing TEV-fused β-arrestin2
# T1 sequence (P08908 1-422): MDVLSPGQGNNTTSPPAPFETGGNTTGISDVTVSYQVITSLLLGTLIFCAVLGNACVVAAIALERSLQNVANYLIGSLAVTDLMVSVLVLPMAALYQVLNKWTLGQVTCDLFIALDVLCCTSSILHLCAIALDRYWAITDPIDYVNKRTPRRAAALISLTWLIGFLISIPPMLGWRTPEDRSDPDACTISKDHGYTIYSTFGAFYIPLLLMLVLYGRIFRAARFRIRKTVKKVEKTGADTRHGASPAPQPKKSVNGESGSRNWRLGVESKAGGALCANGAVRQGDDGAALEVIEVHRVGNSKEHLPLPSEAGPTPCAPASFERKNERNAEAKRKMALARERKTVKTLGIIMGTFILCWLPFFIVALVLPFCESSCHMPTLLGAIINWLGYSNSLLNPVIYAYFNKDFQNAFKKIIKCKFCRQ
structure (smiles),measurement,setting,value
NCCc1c[nH]c2ccc(O)cc12 [serotonin],"response, Fig_S10l, replicate values",[1]; Log[Drug] -6.52,89.1482 and 68.7936 and 58.4442
same,"response, Fig_S10l, replicate values",[1]; Log[Drug] -7,66.8775 and 42.3868 and 35.3098 and 60.5263 and 52.6042 and 58.638 and 24.4765 and 22.6408 and 30.0813
same,"response, Fig_S10l, replicate values",[1]; Log[Drug] -7.52,68.5906 and 51.7176 and 27.5973 and 17.0437 and 36.727 and -5.864 and 8.121 and 12.6341 and 15.0506
same,"response, Fig_S10l, replicate values",[1]; Log[Drug] -8,24.3997 and 25.1743 and 11.0247 and 13.4188 and 3.861 and -8.27 and 5.486 and 9.516 and -0.3454
same,"response, Fig_S10l, replicate values",[1]; Log[Drug] -8.52,28.2691 and 10.8991 and 0.6654 and 20.8515 and 4.218 and 3.753 and -2.601 and -10.3369 and 7.58
same,"response, Fig_S10l, replicate values",[1]; Log[Drug] -9,8.291 and 7.398 and -4.407 and 28.3765 and 10.5666 and -13.7434 and -1.811 and 21.0925 and -2.254
same,"response, Fig_S10l, replicate values",[1]; Log[Drug] -9.52,15.1454 and -8.903 and -7.678 and 11.6014 and -2.921 and -5.371 and 3.959 and 0.2537 and -8.706
same,"response, Fig_S10l, replicate values",[1]; Log[Drug] -10,10.6015 and 17.2844 and 5.47 and 9.7774 and -6.372 and -8.832 and 0.1972 and 15.6666 and 6.603
same,"response, Fig_S10l, replicate values",[1]; Log[Drug] -10.52,14.0658 and 3.099 and 4.084 and 6.9236 and -15.9908 and -3.571 and 14.7648 and -9.016 and -4.897
same,"response, Fig_S10l, replicate values",[1]; Log[Drug] -11,11.925 and 9.507 and -4.609 and 40.988 and 1.279 and -23.0265 and -4.413 and 0.5655 and 2.993
same,"response, Fig_S10l, replicate values",[1]; Log[Drug] -11.52,29.1466 and 5.5415 and 2.1791 and 13.0085 and 1.916 and 6.51 and 8.732 and 12.6601
same,"response, Fig_S10l, replicate values",[1]; Log[Drug] -12,12.8871 and 8.151 and 29.2053 and 0.5174 and 13.376 and 13.9134 and 1.483 and -15.396
same,"β-arrestin2 recruitment response, agonist mode (normalized)",[2]; Log[Drug] -9.52,0.051 and -0.6094 and 0.4564 and 0.9983 and -0.6725 and -0.3119 and 0.3423 and -0.09315 and -0.541 and 0.6114
same,"β-arrestin2 recruitment response, agonist mode (normalized)",[2]; Log[Drug] -10,-0.5013 and -1.706 and 4.314 and 0.8312 and -0.5054 and -0.4971 and 1.761 and 0.86 and 0.493 and 1.8886 and 0.4834
same,"β-arrestin2 recruitment response, agonist mode (normalized)",[2]; Log[Drug] -10.52,0.008354 and -1.487 and -0.1989 and 2.088 and -0.6683 and 3.151 and -0.06065 and -0.5318 and -0.2913
same,"β-arrestin2 recruitment response, agonist mode (normalized)",[2]; Log[Drug] -11,-0.8312 and 0.8491 and 0.1249 and -0.3544 and 0.3342 and 1.248 and -0.5329 and 0.3 and -1.04 and 0.4834
same,"β-arrestin2 recruitment response, agonist mode (normalized)",[2]; Log[Drug] -11.52,-0.8271 and 2.483 and -0.08669 and -0.3213 and -0.5138 and 3.162 and -0.4376 and 0.6466 and -0.1376 and 0.477 and 1.383 and 1.636
same,"β-arrestin2 recruitment response, agonist mode (normalized)",[2]; Log[Drug] -12,-0.1546 and 0.0408 and 0.03825 and -0.07649 and -0.33 and -0.5096 and -0.8188 and 0.4787 and -0.4787 and 6.658 and -0.3041 and 1.905
